Values of other authors in patent US20260240156A1, “OIL-BASED DISPERSION COMPOSITIONS OF SOLID PARTICULATE HYGROSCOPIC OR WATER-SOLUBLE PESTICIDES” (priority 2023, published 2026).

Details: in water compared to non-aqueous systems

## CC1=NNC(=O)N(/N=C/c2cccnc2)C1 [Pymetrozine, 6-methyl-4-[(E)-(pyridin-3ylmethylene)amino]-4,5-dihydro-2H-[1,2,4]-triazin-3-one]
  Photodegradation: significantly faster in water compared to non-aqueous systems
